# Where “and” joins values, the source holds several entries; their conditions need not be identical. Equal entries are not always repeated.
# Experiments:
# [1] = molecular target: Glycogen synthase kinase-3 alpha (Homo sapiens, UniProt P49840); assay: TR-FRET Assay
# Procedure, shortened: (§1)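 Enzyme and test compound were first incubated together for 30 minutes in assay buffer. The kinase reaction followed and was stopped with EDTA. The pSer641 signal was read by time-resolved FRET.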
# [2] = molecular target: Glycogen synthase kinase-3 beta (Homo sapiens, UniProt P49841); assay: TR-FRET Assay
# Procedure, shortened: as §1
# Sequence of Glycogen synthase kinase-3 alpha (P49840 whole entry): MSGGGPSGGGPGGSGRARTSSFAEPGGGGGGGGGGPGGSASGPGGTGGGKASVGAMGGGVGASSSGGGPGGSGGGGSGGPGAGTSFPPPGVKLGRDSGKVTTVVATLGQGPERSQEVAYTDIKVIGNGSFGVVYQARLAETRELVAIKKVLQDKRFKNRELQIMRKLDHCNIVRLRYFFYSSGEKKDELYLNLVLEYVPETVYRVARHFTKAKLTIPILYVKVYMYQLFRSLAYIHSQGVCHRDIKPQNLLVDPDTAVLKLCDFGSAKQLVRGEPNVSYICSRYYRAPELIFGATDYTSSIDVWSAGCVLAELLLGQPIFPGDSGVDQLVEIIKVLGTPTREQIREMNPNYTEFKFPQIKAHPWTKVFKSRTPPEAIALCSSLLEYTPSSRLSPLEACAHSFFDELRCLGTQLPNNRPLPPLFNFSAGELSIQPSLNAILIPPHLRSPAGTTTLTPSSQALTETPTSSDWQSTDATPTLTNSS
# Sequence of Glycogen synthase kinase-3 beta (P49841 whole entry): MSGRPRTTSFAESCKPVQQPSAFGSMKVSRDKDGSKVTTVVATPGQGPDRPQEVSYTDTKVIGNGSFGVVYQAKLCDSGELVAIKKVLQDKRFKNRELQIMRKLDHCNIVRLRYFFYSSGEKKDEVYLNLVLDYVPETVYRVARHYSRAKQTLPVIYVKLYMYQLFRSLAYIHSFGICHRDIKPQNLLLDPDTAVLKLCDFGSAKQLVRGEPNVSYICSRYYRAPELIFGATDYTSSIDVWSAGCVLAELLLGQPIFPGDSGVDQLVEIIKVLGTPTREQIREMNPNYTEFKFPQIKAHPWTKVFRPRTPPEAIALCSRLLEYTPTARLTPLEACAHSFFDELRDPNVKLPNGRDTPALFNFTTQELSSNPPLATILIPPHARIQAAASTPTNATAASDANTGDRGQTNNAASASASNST
Structure (SMILES),IC50 [1],IC50 [2]
"CC[C@@]1(c2cccc([C@@H]3CCOC3)c2)C2=CN=NC2NC2=C1C(=O)CC(C)(C)C2 (stereo partly drawn) [US20250313563, Compound 889565]",100 to 1000 nM,1000 to 5000 nM
"CC[C@@]1(c2cccc(C(F)(F)F)c2)C2=CN=NC2NC2=C1C(=O)N(c1ccc(C)cc1)CC2 (stereo partly drawn) [US20250313563, Compound 949119]",1000 to 5000 nM,> 5000 nM
"CC[C@]1(c2cc(N(C)C(C)=O)ccc2F)C2=C(CC(C)(C)CC2=O)NC2N=NC(C)=C21 (stereo partly drawn) [US20250313563, Compound 929451]",> 5000 nM,> 5000 nM
"CC1(C)CC(=O)C2=C(C1)NC1=C(CN=N1)C21CCOC1 (stereo not drawn) [US20250313563, Compound 826713]",100 to 1000 nM,100 to 1000 nM
"CCC1(CCc2ccccc2)C2=C(N=NC2)NC2=C1C(=O)CC(C)(C)C2 (stereo not drawn) [US20250313563, Compound 819563]",1000 to 5000 nM,> 5000 nM
"CC[C@@]1(c2cccc(C(F)(F)F)c2)C2=C(N=NC2)NC2=C1C(=O)N[C@H]2C [US20250313563, Compound 945381]",> 5000 nM,> 5000 nM
"CC[C@@]1(c2cccc(-c3ccncc3O)c2)C2=CN=NC2NC2=C1C(=O)CC(C)(C)C2 (stereo partly drawn) [US20250313563, Compound 945724]",< 100 nM and 100 to 1000 nM,< 100 nM and 1000 to 5000 nM
"CC1(C)CC(=O)C2=C(C1)NC1=C(CN=N1)C21CN(S(=O)(=O)C2CCCC2)C1 [US20250313563, Compound 917139]",< 100 nM and 100 to 1000 nM,< 100 nM and 100 to 1000 nM
"CC[C@]1(c2cccc(-c3ccncc3)c2)C2=CN=NC2NC2=C1C(=O)CC(C)(C)[C@@H]2F (stereo partly drawn) [US20250313563, Compound 959341]",1000 to 5000 nM,100 to 1000 nM
"CC1(C)CC(=O)C2=C(C1)NC1=C(CN=N1)[C@]21CCO[C@@H](C(F)(F)F)C1 [US20250313563, Compound 884021]",100 to 1000 nM,100 to 1000 nM
"CC[C@]1(c2cccc(C(C)C)c2)C2=C(CC(C)(C)NC2=O)NC2N=NC(C)=C21 (stereo partly drawn) [US20250313563, Compound 949649]",< 100 nM and 100 to 1000 nM,< 100 nM and 1000 to 5000 nM
"Cc1cnn(C)c1S(=O)(=O)N1CCC2(CC1)C1=C(N=NC1)NC1=C2C(=O)CC(C)(C)C1 [US20250313563, Compound 945658]",100 to 1000 nM,1000 to 5000 nM
"CC[C@@]1(c2ccccc2)C2=CN=NC2NC2=C1C(=O)[C@H](F)C(C)(C)C2 (stereo partly drawn) [US20250313563, Compound 826766]",100 to 1000 nM,100 to 1000 nM
"CC[C@@]1(c2cccc(C3=C(C)SN(C)C3)c2)C2=CN=NC2NC2=C1C(=O)NC1(CCC1)C2 (stereo partly drawn) [US20250313563, Compound 950056]",100 to 1000 nM,> 5000 nM
"C[C@@H]1CC[C@]2(C1)C1=C(N=NC1)NC1=C2C(=O)CC(C)(C)C1 [US20250313563, Compound 883841]",100 to 1000 nM,100 to 1000 nM
"CCC1(c2cccc(-c3ccnc(CO)c3)c2)C2=CN=NC2NC2=C1C(=O)CC(C)(C)C2 (stereo not drawn) [US20250313563, Compound 943540]",< 100 nM,100 to 1000 nM
"CC[C@@]1(c2cccc(-c3ccnc(C(F)(F)F)c3)c2)C2=CN=NC2NC2=C1C(=O)CC(C)(C)C2 (stereo partly drawn) [US20250313563, Compound 943989]",> 5000 nM,> 5000 nM
"CCC1(c2cccc(C3CN(C(C)=O)C3)c2)C2=CN=NC2NC2=C1C(=O)CC(C)(C)C2 (stereo not drawn) [US20250313563, Compound 948779]",1000 to 5000 nM,> 5000 nM
"CC1(C)CC(=O)C2=C(C1)NC1=C(CN=N1)C2(C)c1cccc(Br)c1 (stereo not drawn) [US20250313563, Compound 789277]",< 100 nM,100 to 1000 nM

Structure (SMILES),IC50 [1],IC50 [2]
"CC[C@]1(c2cccc(-c3ccncc3F)c2)C2=C(CC(C)(C)NC2=O)NC2N=NC(C(F)F)=C21 (stereo partly drawn) [US20250313563, Compound 951612]",< 100 nM and 100 to 1000 nM,< 100 nM and 1000 to 5000 nM
"CCC1(c2cccc(-c3cnnn3C)c2)C2=CN=NC2NC2=C1C(=O)CC(C)(C)C2 (stereo not drawn) [US20250313563, Compound 947398]",< 100 nM,< 100 nM
"CC[C@@]1(c2ccccc2)C2=CN=NC2NC2=C1C(=O)C[C@@H](C)C2 (stereo partly drawn) [US20250313563, Compound 789013]",100 to 1000 nM,> 5000 nM
"CC[C@@]1(c2cccc(Cl)c2)C2=C(CC(C)(C)CC2=O)NC2N=NC(Br)=C21 (stereo partly drawn) [US20250313563, Compound 801315]",100 to 1000 nM,100 to 1000 nM
"CCC1(c2cccc(OC)c2)C2=C(CC(C)(C)NC2=O)NC2N=NC(C)=C21 (stereo not drawn) [US20250313563, Compound 948763]",< 100 nM,100 to 1000 nM
"CC[C@@]1(c2cccc(C3CC3)c2)C2=CN=NC2NC2=C1C(=O)CC(C)(C)C2 (stereo partly drawn) [US20250313563, Compound 811558]",1000 to 5000 nM,> 5000 nM
"CC[C@@]1(c2cccc(-c3cc(C)nn3C)c2)C2=C(N=NC2)NC2=C1C(=O)C(C)(C)C2 [US20250313563, Compound 950818]",100 to 1000 nM,1000 to 5000 nM
"CC[C@@]1(c2cccc(-c3cn(C)nc3C)c2)C2=C(N=NC2)NC2=C1C(=O)C(C)(C)C2 [US20250313563, Compound 951702]",100 to 1000 nM,100 to 1000 nM
"CCC1(CC)C2=C(CC(C)(C)CC2=O)NC2=C1C(C)N=N2 (stereo not drawn) [US20250313563, Compound 786061]",100 to 1000 nM,> 1670 nM
"CC[C@@]1(c2cccc(C(F)(F)F)c2)C2=CN=NC2NC2=C1C(=O)CC(C)(C)C2 (stereo partly drawn) [US20250313563, Compound 790755]",100 to 1000 nM,> 1700 nM
"CC[C@@]1(c2cccc(C(F)(F)F)c2)C2=CN=NC2NC2=C1C(=O)N(c1cscn1)CC2 (stereo partly drawn) [US20250313563, Compound 952638]",> 5000 nM,> 5000 nM
"CCC1(c2cccc(Br)c2)C2=C(CC(C)CC2=O)NC2N=NC(C(F)(F)F)=C21 (stereo not drawn) [US20250313563, Compound 826715]",< 100 nM,< 100 nM
"Cn1cc(S(=O)(=O)N2CCC3(CC2)C2=C(N=NC2)NC2=C3C(=O)CC(C)(C)C2)cn1 [US20250313563, Compound 901467]",< 100 nM and 100 to 1000 nM,< 100 nM and 1000 to 5000 nM
"CC[C@@]1(c2cccc(-c3cc(C)nnc3C)c2)C2=C(CC(C)(C)NC2=O)NC2N=NC(C)=C21 (stereo partly drawn) [US20250313563, Compound 949333]",< 100 nM,100 to 1000 nM
"CCC1(c2cccc(-c3cnc(C)n3C)c2)C2=CN=NC2NC2=C1C(=O)CC(C)(C)C2 (stereo not drawn) [US20250313563, Compound 943531]",< 100 nM and 100 to 1000 nM,100 to 1000 nM and > 5000 nM
"CCC1(c2cccc(-c3ccnc(C)c3)c2)C2=C(N=NC2)NC2=C1C(=O)C(C)(C)C2 (stereo not drawn) [US20250313563, Compound 949840]",100 to 1000 nM,1000 to 5000 nM
"CC[C@]1(c2cccc(N3CCCC3)c2)C2=C(CC(C)(C)CC2=O)NC2N=NC(C)=C21 (stereo partly drawn) [US20250313563, Compound 883875]",100 to 1000 nM,1000 to 5000 nM
"CCC1(c2cccc(C3CCOCC3)c2)C2=CN=NC2NC2=C1C(=O)CC(C)(C)C2 (stereo not drawn) [US20250313563, Compound 791273]",< 100 nM,100 to 1000 nM

# Other lines, results leading:
IC50 [1],IC50 [2],Structure (SMILES)
< 100 nM,< 100 nM,"CC[C@]1(c2cccc([C@@H]3CCOC3)c2)C2=CN=NC2NC2=C1C(=O)CC(C)(C)C2 (stereo partly drawn) [US20250313563, Compound 889557]"
< 100 nM,100 to 1000 nM,"CCC1(c2cccc(C(F)(F)F)c2)C2=CN=NC2NC2=C1C(=O)N(C)C(C)(C)C2 (stereo not drawn) [US20250313563, Compound 823130]"
< 100 nM,< 100 nM,"CCC1(c2cccc(-c3cncn3C)c2)C2=C(CC(C)(C)CC2=O)NC2N=NC(C)=C21 (stereo not drawn) [US20250313563, Compound 884001]"
< 100 nM,100 to 1000 nM,"CC[C@]1(c2cccc(-c3ccncn3)c2)C2=CN=NC2NC2=C1C(=O)CC(C)(C)C2 (stereo partly drawn) [US20250313563, Compound 810488]"
< 100 nM,100 to 1000 nM,"Cn1ccc(S(=O)(=O)N2CCC3(CC2)C2=C(N=NC2)NC2=C3C(=O)CC(C)(C)[C@@H]2F)n1 [US20250313563, Compound 951708]"
< 100 nM,100 to 1000 nM,"O=C1CC2(CCCCC2)CC2=C1C1(CCOCC1)C1=C(N=NC1)N2 [US20250313563, Compound 893307]"
< 100 nM,100 to 1000 nM,"CC1(C)CC(=O)C2=C(C1)NC1=C(CN=N1)C21COC2(CN(C(=O)C3CCC(F)CC3)C2)C1 (stereo not drawn) [US20250313563, Compound 947267]"
< 100 nM,100 to 1000 nM,"CCC1(c2cccc(N(C)c3cc(C)ccn3)c2)C2=CN=NC2NC2=C1C(=O)CC(C)(C)C2 (stereo not drawn) [US20250313563, Compound 943537]"
< 100 nM,< 100 nM,"Cc1cc(S(=O)(=O)N2CCC3(CC2)C2=C(N=NC2)NC2=C3C(=O)CC(C)(C)C2)n(C)n1 [US20250313563, Compound 947608]"
< 100 nM,100 to 1000 nM,"CCC1(c2cccc(-c3ccnc(C)c3)c2)C2=CN=NC2NC2=C1C(=O)CC(C)(C)C2 (stereo not drawn) [US20250313563, Compound 840857]"
< 100 nM,100 to 1000 nM,"CC1(C)CC(=O)C2=C(NC3=C(CN=N3)[C@]23CC[C@H](C(F)(F)F)CC3)C1F (stereo partly drawn) [US20250313563, Compound 917136]"
< 100 nM,100 to 1000 nM,"CCC1(c2cccc(Br)c2)C2=CN=NC2NC2=C1C(=O)C(F)C(C)(C)C2 (stereo not drawn) [US20250313563, Compound 826764]"
< 100 nM,< 100 nM,"CCC1(c2cccc(C(C)C)c2)C2=C(CC(C)(C)NC2=O)NC2N=NC(C)=C21 (stereo not drawn) [US20250313563, Compound 949173]"
< 100 nM,100 to 1000 nM,"CCC1(c2cccc(-c3ccncn3)c2)C2=CN=NC2NC2=C1C(=O)CC(C)(C)C2 (stereo not drawn) [US20250313563, Compound 806637]"
< 100 nM,< 100 nM and 100 to 1000 nM,"CCC1(c2cccc(S(=O)(=O)C3CC3)c2)C2=CN=NC2NC2=C1C(=O)CC(C)(C)C2 (stereo not drawn) [US20250313563, Compound 909204]"
< 100 nM,< 100 nM,"CCC1(c2cccc(S(=O)(=O)C3COC3)c2)C2=CN=NC2NC2=C1C(=O)CC(C)(C)C2 (stereo not drawn) [US20250313563, Compound 944017]"
< 100 nM,< 100 nM,"CC[C@]1(c2cccc(-c3cnn(C)c3)c2)C2=C(CC(C)(C)CC2=O)NC2N=NC(C(F)(F)F)=C21 (stereo partly drawn) [US20250313563, Compound 811565]"

# Source: BindingDB's records for patent US20250313563 (The Broad Institute, 2025)
